Experiments:
Format in all cases: in vivo
[1] = system: Meloidogyne incognita J2s; test: Tomato invasion assay, M. incognita J2s; settings: 100 μM uNLP, 24 h, tomato seedlings, normalised to negative control
Protocol: (§1) Predicted uNLPs from both M. incognita and G. pallida were synthesised by EZBiolab and dissolved into pH adjusted ddH2O to make a 5 mM stock which was aliquoted and stored at −20° C. J2s of both M. incognita and G. pallida were incubated for 24 hours in 200 μl of each peptide in a 24 well plate (SPL Lifesciences, South Korea) at a defined concentration.
(§2) Tomato seeds were sterilised with 2.5% NaOCl for 15 minutes, washed 5 times in ddH2O and germinated on 0.5% Murashige and Skoog plates at 23° C. […] Invasion assays were performed by mixing 500 pre-treated M. incognita or G. pallida J2s with agar slurry and a single tomato seedling (2 days post germination) in a 6 well plate. Assays were left at 23° C. for 24 hours in the case of M. incognita and at 18° C. for 24 hours in the case of G. pallida under a 16 hour light and 8 hour darkness cycle. Seedlings were stained using acid fuschin [69] and the number of nematodes within the roots counted.

[2] = system: Steinernema carpocapsae infective juveniles; test: S. carpocapsae host-finding assay (non-target nematode); settings: S. carpocapsae IJs, 100 μM, 24 h; no statistically significant impact; control 0.2315
Protocol: S. carpocapsae were cultured in Galleria mellonella at 23° C. Infective juveniles (IJs) were collected using a White trap in PBS. Freshly emerged IJs were used for each assay. 100 IJs were incubated for 24 hours in 100 μM of selected uNLPs, and host-finding assays performed as in Morris et al..

[3] = system: Meloidogyne incognita infective stage juveniles (J2s); test: Chemosensory (chemotaxis) assay towards root exudate, M. incognita J2s; settings: M. incognita J2s, 100 μM uNLP, 24 h; mean+/-SEM
Protocol: as §1
A 60 mm Petri dish was divided into two segments, a positive and a negative side, with a 0.5 cm ‘dead zone’ either side of the centre point. The petri dish was filled with 15 ml of 0.25% w/v agar which was allowed to solidify. 3 ml of 0.25% w/v agar slurry in spring water (pH 7, agitated with a magnetic stirrer for several hours to give a smooth consistency) was added to the petri dish and spread evenly over the surface. Root diffusate (attractant) and water only (control) 0.25% agar plugs were embedded in the agar slurry, either side of the assay arena. Root diffusate was collected from 10 tomato plants, aged 3-6 weeks in 1 litre pots, by pouring 500 ml of ddH2O through the soil three times. Diffusate from each plant was combined, filter sterilised and stored at 4° C. for a maximum of 1 month. Root diffusate agar plugs were made by melting 1.25% agar in ddH2O, cooling to 50° C. before mixing with 4 parts of root diffusate. The agar was then allowed to solidify at room temperature. 100 uNLP pre-treated M. incognita or G. pallida J2s were added by pipette to the centre of the plate. J2s which moved out of the ‘dead zone’ after 3 hours were counted and their location (+/−) scored. The distribution of J2s were used to create a chemotaxis index for each plate, which formed one replicate, a total of 10 replicates where completed for each uNLP treatment.

[4] = system: mixed-stage Caenorhabditis elegans; test: C. elegans chemotaxis assay (non-target nematode); settings: 100 μM, 24 h, no statistically significant impact; for chemotaxis index (Cl) towards sodium acetate: control 0.4269; for chemotaxis index (Cl) towards pyrazine: control 0.4904; for chemotaxis index (Cl) towards diacetyl: control 0.6638; for chemotaxis index (Cl) towards benzaldehyde: control 0.7026
Protocol: C. elegans wild-type N2 Bristol strain were obtained from the C. elegans Genomics Center and maintained on a Escherichia coli (strain OP50) lawn on nematode growth medium (NGM) agar plates (3 g/l NaCl, 17 g/l agar, 2.5 g/l peptone, 5 mg/l cholesterol, 25 mM KH2PO4 (pH 6.0), 1 mM CaCl2, 1 mM MgSO4) at 20° C.. Chemotaxis assays were performed in a 9 cm diameter Petri dish on NGM agar which was split into a positive and negative side with a central ‘dead zone’ of 1.5 cm diameter. 100 mixed-staged C. elegans were washed three times in M9 buffer and soaked in 100 μM PPN uNLP, or M9 vehicle control for 24 hours. 2 μl of 50 mM sodium acetate, 0.5% pyrazine, 0.5% benzaldehyde or 0.5% diacetyl was spotted onto the positive side, 2 μl of ddH2O was spotted onto the negative side. Pyrazine, benzaldehyde and diacetyl volatile attractants were assayed immediately whereas the water soluble sodium acetate was assayed 18 hours following addition to the plate. Assays were maintained in the dark at 20° C., and counted after 1 hour.

[5] = system: Meloidogyne incognita J2s; test: B. subtilis and C. reinhardtii plant protection assay, M. incognita; settings: tomato
Protocol: as §2
B. subtilis were grown overnight in LB media containing ampicillin (100 μg/ml) at 37° C. with shaking, and harvested in the log phase of growth determined by measuring OD600nm. Five ml of culture at 0.5 OD was spun down and the pellet mixed with 3 ml of agar slurry and 500 J2s from either G. pallida or M. incognita. C. reinhardtii clones were grown at 23° C. with shaking, cultures in the log phase were measured at OD750 and 5 ml of culture at 0.5 OD was pelleted by centrifugation. C. reinhardtii pellets were mixed with 3 ml of agar slurry and 500 J2s from either G. pallida or M. incognita. Plant invasion assays were performed as described above.
uNLP secretion inserts, and vector pChlamy_3 were digested using Kpnl/Xbal (New England Biolabs, USA), ligated using T4 ligase (New England Biolabs, USA), and cloned into Escherichia coli One Shot® TOP10 chemically competent cells (Life Technologies, USA) following manufacturer's instructions. Ampicillin (Sigma Aldrich, USA) was used to select E. coli containing the pChlamy_3 plasmid, which was subsequently extracted using the High Pure Plasmid Isolation Kit (Roche) and sequenced (Eurofins Genomics, UK) to identify correct clones. C. reinhardtii was transformed by electroporation following manufacturer's instructions (GeneArt® Chlamydomonas Engineering Kit, Life Technologies) and individual colonies grown on TAP-Agar-Hygromycin plates (10 μg/mL) (Sigma Aldrich, USA) at 23° C. Colonies were picked and grown at 23° C. in 100 ml TAP growth media (Invitrogen, USA) with constant orbital agitation. qRT-PCR was performed to identify clones with the highest level of uNLP expression, which were then selected for downstream assays (pChlamy universal FWD: […], nlp-15b REV: CTACTAGTCGAGGCCGGTA; Mi-nlp-9f REV: GAACGGGCGGATGAAGTAG).
uNLP secretion inserts, and vector pBE-S were digested using Xbal/Mlul (New England Biolabs, USA), ligated using T4 ligase (New England Biolabs, USA), and cloned into E. coli One Shot® TOP10 chemically competent cells (Life Technologies, USA) following manufacturer's instructions. […]

[6] = system: Meloidogyne incognita J2s; test: Serotonin-induced stylet thrusting assay, M. incognita J2s; settings: 100 μM uNLP, 24 h, 5 mM serotonin
Protocol: as §1
Stylet thrusting assays where performed by incubating 100 M. incognita or G. pallida J2s for 15 minute in 5 mM or 2 mM serotonin (Sigma Aldrich, USA), respectively. J2s were placed on a glass slide and stylet thrusts were counted for randomly selected J2s, for 1 minute each. Counting took place for a maximum of 15 minutes. Longer incubations yielded inconsistent results. At least 30 J2s were counted for each neuropeptide treatment.

Substance | host invasion compared to controls [1] | insect host-finding index (Cl) towards Galleria mellonella [2] | chemotaxis index (Cl) towards root exudate [3] | chemotaxis index (Cl) towards sodium acetate [4] | chemotaxis index (Cl) towards pyrazine [4] | chemotaxis index (Cl) towards diacetyl [4] | chemotaxis index (Cl) towards benzaldehyde [4] | M. incognita invasion relative to untransformed C. reinhardtii ([5]; C. reinhardtii cultures secreting the uNLP) | M. incognita invasion relative to control ([5]; B. subtilis cultures secreting the uNLP) | rate of serotonergic-induced stylet thrusting compared with controls [6]
GGGRYFIRPFADQ [Mi-NLP-9f, predicted unamidated NLP of Meloidogyne incognita] | 28.22%+/−5.253 | 0.2462+/−0.070 | −0.26+/−0.224 | 0.5261+/−0.064 | 0.4599+/−0.087 | 0.6+/−0.092 | 0.7463+/−0.047 | 10.32%+/−10.32 | – | –
MVSWQPV [Mi-NLP-40, predicted unamidated NLP of Meloidogyne incognita] | – | 0.3057+/−0.082 | −0.04+/−0.04726 | 0.4820+/−0.115 | 0.5018+/−0.039 | 0.5858+/−0.097 | 0.6686+/−0.065 | – | 23.72%+/−5.448 | 210%+/−21.35
